Patent publication US20240398893A1, “ANTI-CORONAVIRUS POLYPEPTIDE AS WELL AS DERIVATIVE AND APPLICATION THEREOF” (priority 2021, published 2024)

Key:
[1] = tested on: pseudovirus of the SARS-COV-2 prototype
[2] = during purification process of solid-phase synthesis

| Compound | EC50 [1] [nM] | stability [2] |
| --- | --- | --- |
| CC[C@H](C)[C@H](NC(=O)CNC(=O)[C@H](CO)NC(=O)[C@@H](NC(=O)[C@H](CC(=O)O)NC(=O)CNC(=O)[C@H](Cc1ccccc1)NC(=O)[C@H](CCCCN)NC(=O)[C@@H](N)C(C)C)[C@@H](C)CC)C(=O)N[C@@H](CC(N)=O)C(=O)N[C@@H](C)C(=O)N[C@@H](CO)C(=O)N[C@H](C(=O)N[C@H](C(=O)N[C@@H](CC(N)=O)C(=O)N[C@H](C(=O)N[C@@H](CCCCN)C(=O)N[C@@H](CCC(=O)O)C(=O)N[C@@H](CCC(=O)O)C(=O)N[C@H](C(=O)N[C@@H](CC(=O)O)C(=O)N[C@@H](CCCNC(=N)N)C(=O)N[C@@H](CC(C)C)C(=O)N[C@@H](Cc1ccc(O)cc1)C(=O)N[C@@H](CCC(=O)O)C(=O)N[C@H](C(=O)N[C@H](C(=O)N[C@@H](CCCCN)C(=O)N[C@@H](CC(N)=O)C(=O)N[C@@H](CC(C)C)C(=O)N[C@@H](CC(N)=O)C(=O)N[C@@H](CCC(=O)O)C(=O)N[C@@H](CO)C(=O)N[C@@H](CC(C)C)C(=O)N[C@H](C(=O)N[C@@H](CC(=O)O)C(=O)N[C@@H](CC(C)C)C(=O)N[C@@H](CCC(N)=O)C(=O)N[C@@H](CCC(=O)O)C(=O)N[C@@H](CC(C)C)C(=O)O)[C@@H](C)CC)C(C)C)C(C)C)[C@@H](C)CC)[C@@H](C)CC)C(C)C)C(C)C [P3-3] | 501 |  |
| DLGDISGINASVVNIQKEIDRLNEVAKNLNESLIDLQELGSGSGC(CH2CONH(PEG)4CH2COOChol)-NH2 [P3-2-GS-PEG-Chol-1] |  | poor stability |
| DLGDISGINASVVNIQKEIDRLNEVAKNLNESLIDLQELGSGSGC(CH2COOChol)-NH2 [P3-2-GS-Chol-1] |  | poor stability |
